For data set [1] the following is noted: cited from earlier work.
For data set [2], the system named is cerebellar molecular layer interneurons. Put plainly: Photolysis-evoked GABAergic currents in cerebellar molecular layer interneurons. The class given is cell-based. The method, then:
The biological properties of our synthetic bis-CNB-GABA were evaluated using whole-cell patch recording from cerebellar molecular layer interneurons.
FIGS. 42A-42E illustrate physiological responses to photolysis of bis-CNB-GABA. FIG. 42A illustrates a cerebellar molecular layer interneuron visualized using Alexa 488 in the patch recording electrode solution. Referring to FIG. 42A, bis-CNB-GABA (0.6 mM) was photolyzed with a 405 nm laser spot in 3 different locations (indicated by 1, 2 and 3). Still referring to FIG. 42A, laser-evoked GABAergic currents are shown on the right panel. Still referring to FIG. 42A, gray traces show individual sweeps and black traces are averages. Still referring to FIG. 42A, the gray sweep at bottom indicates the laser flash (1 ms duration, intensity 5 mW) as recorded using a photodiode. FIG. 42B illustrates bis-CNB-GABA (1.4 mM) was photolyzed with a […] LED at progressively higher flash energies (0.25-1.1 mW, 5-50 ms, 1.25-55 μJ). FIG. 42C illustrates the same experiment as shown in FIG. 42B with Responses to mono-CNB-GABA (50 μM). FIG. 42D illustrates normalized current as a function of relative LED flash energies plotted on a log-log scale. FIG. 42E illustrates laser-evoked whole-cell current recorded in the absence and presence of 3 μM gabazine, a GABA receptor antagonist. Referring to FIG. 42E, a larger flash energy was used in the presence of gabazine.
Referring to FIG. 42A, molecular layer interneurons receive excitatory glutamatergic synapses, as well as inhibitory GABAergic synapses that show a pronounced level of spontaneous activity (gray traces). The effects of bis-CNB-GABA on these synaptic currents were tested.
By contrast, the relationship for mono-O-CNB-GABA was close to linear (log-log slope=1.3±0.1, n=3). For these measurements, evoked currents were normalized to the maximum current observed in the same neuron. […] These power laws are consistent with a process in which each molecule of bis-CNB-GABA must cumulatively undergo two uncaging reactions in order to release an active GABAA agonist.
To test whether bis-CNB-GABA-evoked responses resemble physiological events in their kinetics, we measured the kinetic properties of flash responses. […] This rise time is consistent with the dark reaction time (1.5 ms) for the slower cage, N-mono-CNB-GABA (Wieboldt, R.; Ramesh, D.; Carpenter, B. K; Hess, G. P. Biochemistry, 1994, 33, 1526-1533, which is incorporated herein by reference as if fully set forth). […] These rates approach those of spontaneous events and are among the fastest described for other GABA cages. […]

Data set [3] is described as follows: physchem. The class given is physicochemical. As to conditions: pH 7, aqueous buffer, thermodynamic from solid. An excerpt:
Solubility data was important to obtain before attempting to use the compound in neural tissue. This was accomplished by dissolving a known amount of bis-CNB-GABA in pH 7.0 phosphate buffer solution.

A short description of data set [4]: Quantum yield of photolysis. The class given is physicochemical. Conditions: 254 nm light. The method, then: Quantum yield was a more difficult characteristic to determine. Most published routes of determining quantum yield rely on exposing the compound to a known amount of light and calculating the percent conversion of caged compound to substrate. However, this often requires laser sources and equipment beyond the scope of available facilities. Therefore, it was necessary to develop a way to assess quantum yield with a more practical method. As an alternative, quantum yield was determined by exposing a compound to light alongside a caged compound of known quantum yield. The percent conversion to product of both can be determined, and quantum yield of the unknown caged compound can be calculated using the known quantum yield of the standard.
This method was employed using single-caged CNB-GABA, with a quantum yield of 0.14 (Matsuzaki et al., 2010 Nature Chemical Biology, 6, 255-257, which is incorporated herein by reference as if fully set forth). Referring to this figure, GABA backbone is shown in light gray.
Equimolar amounts of single-caged GABA and bis-CNB-GABA were stirred in separate cuvettes in pH 7.0 phosphate buffer solution and exposed to 254 nm light for 16.5 minutes. An internal standard (1,2-dimethoxyethane) of known amount was then added to each solution, and the moles of GABA released from each compound was determined by ^1HNMR. The peaks corresponding to GABA as well as those from the internal standard were then identified and integrated. From this, moles of GABA and percent conversion were calculated for both bis-CNB-GABA and mono-CNB-GABA. FIG. 34 illustrates NMR data used to determine quantum yield. Referring to FIG. 34, the […] on the top illustrates bis-CNB-GABA before light exposure. Arrows denote methylene peaks of bis-CNB-GABA. Integrated peaks in each spectrum correspond to di-methoxyethane, used as an internal standard. […]
Quantum yield was determined by uncaging bis-CNB-GABA alongside a caged compound of known quantum yield (mono-CNB-GABA, QY=0.16, from Invitrogen). […]

Where two headings read alike, the source gives them in different places. Bounds are passed on as bounds.

With `NCCCC(=O)OC(C(=O)O)c1ccccc1[N+](=O)[O-]` (centres unmarked) [mono-CNB-GABA], the “known quantum yield (QY) of standard” value in data set [1] (from Invitrogen) is 0.16. Besides, the quantum yield in data set [1] (literature values) is recorded as 0.14.
As usually defined, the solubility is the dissolved amount per volume that the medium holds. A high value points to much dissolved substance. For `O=C(CCCNC(C(=O)O)c1ccccc1[N+](=O)[O-])OC(C(=O)O)c1ccccc1[N+](=O)[O-]` (centres unmarked) [bis-CNB-GABA, 2-((4-(Carboxy(2-nitrophenyl)methoxy)-4-oxobutyl)amino)-2-(2-nitrophenyl)acetic acid], in data set [2] (FIGS. 38A-38D), the “rise time of GABA-induced currents upon photolysis” value is recorded as “approximately 2 ms”. For the same compound, the “10-90% rise time of flash responses” value in data set [2] (responses comparable in size with spontaneous IPSCs, flash 1.0 ms, n=10) is 2.2±0.6 ms. In addition, the solubility in data set [3] is not above 17 mM. In addition, the quantum yield in data set [4] (pH 7.0 phosphate buffer, relative to CNB-GABA (0.14)) is given as 0.07. Also, in data set [4] (relative to mono-O-CNB-GABA), the “quantum yield at the N-position” value was 0.032 and the “quantum yield at the O-position” value was determined as 0.15.
